Measurements reported in paper PMC4850295, “Using a Genetically Encoded Sensor to Identify Inhibitors of Toxoplasma gondii Ca^2+ Signaling” (The Journal of Biological Chemistry, 2016).

Tested on: T1, GCaMP5-expressing T. gondii
T1 construct: whole extracellular parasites expressing GCaMP5 Ca2+ sensor
Set-up: species or system GCaMP5-expressing Toxoplasma gondii, extracellular; GCaMP5 fluorescence (cytosolic Ca2+) after 100 uM zaprinast in compound-pretreated extracellular parasites, background-subtracted, relative to zaprinast alone
Conditions: 100 uM zaprinast stimulation; 10 min pretreatment; mean of two replicates; 0.23 h
Experimental: GCaMP5-expressing parasites were suspended in Ringer's solution at 4 × 10^7 parasites/ml, and 50 μl of parasites were applied to each well of a 96-well plate (Costar, catalog no. 3631). […] Parasites were then treated with 100 μM zaprinast or 0.1% DMSO as a vehicle control and incubated at 37 °C with 5% CO2 for an additional 4 min before measuring fluorescence with excitation and emission wavelengths of 485 and 525 nm, respectively, on a SpectraMax M3 (Molecular Devices). Basal fluorescence, measured from untreated parasites, was subtracted from all values, and results were expressed as -fold change from parasites treated only with zaprinast. Z′ factors were determined from (i) parasites treated with zaprinast versus untreated parasites and (ii) parasites treated with a final concentration of 1 μM Cpd2 or a vehicle control followed by zaprinast, using the formula, Z′ = 1 − 3(σp + σn)/(|μp − μn|), where σp and σn indicate S.D. values of positive and negative controls, and μp and μn indicate the means of positive and negative controls, respectively. […] We predicted that the zaprinast response measured in GCaMP5-expressing parasites could form the basis for a phenotypic screen. Such a screen would benefit from the known importance of Ca^2+ signaling in parasite biology along with the reported success rate of cell-based phenotypic assays. We designed a screen wherein extracellular GCaMP5-expressing parasites were pretreated with compounds for 10 min before stimulation with zaprinast, and parasite fluorescence was measured 4 min later. We expected that compounds that interfered with the zaprinast response would reduce fluorescence. We calculated a Z′-factor for this screen to determine its dynamic range and suitability to high throughput screening. To do so, we compared zaprinast-treated parasites to untreated parasites or those pretreated with the PKG inhibitor Compound 2 (Cpd2) ([55]). […] We obtained the compound libraries published kinase inhibitor sets PKIS1 ([57]) and PKIS2 (unpublished), from GlaxoSmithKline and applied our phenotypic screen to the 823 ATP mimetics represented in these collections (Fig. 2B and supplemental Table S1). The compounds were screened at a single 10 μM dose with two biological replicates.

Going from `CC1=C(C(=O)Nc2ccc3[nH]ncc3c2)C(c2ccc(Cl)c(Cl)c2)CC(=O)N1` (centres unmarked) [GSK299115A] to `CC1=C(C(=O)Nc2cc(Cl)c3[nH]ncc3c2)C(c2ccc(C(F)(F)F)cc2)CC(=O)N1` (centres unmarked) [GSK466317A], the “fold change in fluorescence relative to zaprinast alone” value falls from 1.214 to 1.01.

Compared with `O=C(Nc1cccc(-c2nn3ncccc3c2-c2ccnc(Nc3cccc(C(F)(F)F)c3)n2)c1)c1c(F)cccc1F` [GSK299495A], `O=C(Nc1cccc(-c2nn3ncccc3c2-c2ccnc(Nc3cccnc3)n2)c1)c1c(F)cccc1F` [GSK312879A] is lower in “fold change in fluorescence relative to zaprinast alone” value: 1.22 for the first, 1.048 for the second.

Going from `CS(=O)(=O)CCNCc1cc(-c2cc3c(Nc4ccc(OCc5cccc(F)c5)c(Cl)c4)ncnc3s2)cs1` [GSK300014A] to `Fc1cccc(COc2ccc(Nc3ncnc4sc(-c5ccco5)cc34)cc2Cl)c1` [GSK969786A], the “fold change in fluorescence relative to zaprinast alone” value falls from 1.033 to 0.8987.

First: NC(=O)c1cc(-c2ccccc2)cc2c(C3CCNCC3)c[nH]c12 [GSK301362A]
Second: NC(=O)c1cc(-c2ccncc2)cc(-c2ccccc2)c1N [GSK625137A]
The “fold change in fluorescence relative to zaprinast alone” value of the first is higher: 1.06 for the first, 1.053 for the second.

Compared with `O=S(=O)(c1cccc(F)c1)c1ccc(Nc2ncnc3cc(Br)sc23)cc1Cl` [GSK306886A], `C[C@@H](Oc1cc(-n2cnc3cc(-c4ccnc(NCCS(C)(=O)=O)c4)ccc32)sc1C(N)=O)c1ccccc1Cl` [GSK907232A] is higher in “fold change in fluorescence relative to zaprinast alone” value: 1.114 for the first, 1.132 for the second.

Compared with `COc1cc2ncn(-c3cc(OCc4cccs4)c(C(N)=O)s3)c2cc1OC` [GSK312948A], `COc1cc2ncn(-c3cc(OCc4sccc4Cl)c(C(N)=O)s3)c2cc1OC` [GSK448459A] is higher in “fold change in fluorescence relative to zaprinast alone” value: 1.205 for the first, 1.439 for the second.

Compared with `COc1ccc2ncn(-c3cc(O[C@H](C)c4ccccc4C(F)(F)F)c(C(N)=O)s3)c2c1` [GSK317315A], `C[C@@H](Oc1cc(-n2cnc3ccc(OC4CCN(C)CC4)cc32)sc1C(N)=O)c1ccccc1Cl` [GSK579289A] is higher in “fold change in fluorescence relative to zaprinast alone” value: 0.7483 for the first, 0.9541 for the second.

Going from `CC1=C(C(=O)Nc2ccc3[nH]ncc3c2)C(c2ccc(F)cc2)N=C(c2ccc(C(F)(F)F)nc2)N1` (centres unmarked) [GSK317354A] to `COc1ccc(C2=NC(c3ccc(Cl)cc3F)C(C(=O)Nc3ccc4[nH]ncc4c3)=C(C)N2)cn1` (centres unmarked) [GSK534913A], the “fold change in fluorescence relative to zaprinast alone” value falls from 1.324 to 1.286.

Going from `COc1cc2ncn(-c3cc(OCc4ccccc4S(C)(=O)=O)c(C#N)s3)c2cc1OC` [GSK319347A] to `C[C@@H](Oc1cc(-n2cnc3ccc(OCC4CCN(C)CC4)cc32)sc1C(N)=O)c1ccccc1Cl` [GSK571989A], the “fold change in fluorescence relative to zaprinast alone” value falls from 1.184 to 0.9822.

First: COc1cc(Nc2nccc(-c3c(-c4cccc(NC(=O)c5c(F)cccc5F)c4)nn4ccccc34)n2)cc(OC)c1OC [GSK323521A]
Second: COc1cc(Nc2nccc(-c3c(-c4cccc(NC(=O)c5c(F)cccc5F)c4)nn4ncccc34)n2)cc(OC)c1OC [GSK327238A]
The “fold change in fluorescence relative to zaprinast alone” value of the first is higher: 1.412 for the first, 1.28 for the second.

Compared with `CS(=O)(=O)Cc1ccc(Nc2nccc(-c3c(-c4cccc(NC(=O)c5c(F)cccc5F)c4)nn4ccccc34)n2)cc1` [GSK323543A], `NS(=O)(=O)CCc1cccc(Nc2nccc(-c3c(-c4cccc(NC(=O)c5c(F)cccc5F)c4)nn4ccccc34)n2)c1` [GSK336735A] is lower in “fold change in fluorescence relative to zaprinast alone” value: 1.565 for the first, 1.201 for the second.

Going from `CCS(=O)(=O)c1ccc(OC)c(Nc2nccc(-c3c(-c4cccc(NC(=O)c5c(F)cccc5F)c4)nn4ncccc34)n2)c1` [GSK326180A] to `O=C(Nc1cccc(-c2nn3ccccc3c2-c2ccnc(Nc3cccc(F)c3)n2)c1)c1c(F)ccc(F)c1Cl` [GSK357952A], the “fold change in fluorescence relative to zaprinast alone” value falls from 1.656 to 1.061.

Going from `Cc1ccc(F)c(C(=O)Nc2cccc(-c3nn4ccccc4c3-c3ccnc(Nc4cccc(F)c4)n3)c2)c1F` [GSK361061A] to `COc1cccc(OC)c1C(=O)Nc1cccc(-c2nn3ccccc3c2-c2ccnc(Nc3cccc(F)c3)n2)c1` [GSK361065A], the “fold change in fluorescence relative to zaprinast alone” value rises from 0.9289 to 0.9782.

Compared with `COc1ccccc1CNC(=O)c1cc(C(=O)c2ccccc2C)c[nH]1` [GSK364507A], `COc1ccc(-c2ccncc2)cc1C(N)=O` [GSK605714A] is lower in “fold change in fluorescence relative to zaprinast alone” value: 1.353 for the first, 1.144 for the second.

Compared with `NS(=O)(=O)c1cccc(N=Cc2c(O)[nH]c3ccc(S(=O)(=O)Cc4c(Cl)cccc4Cl)cc23)c1` [GSK398099A], `COc1c(C(N)=O)cc(-c2ccc(Cl)cc2)cc1-c1ccc(S(N)(=O)=O)cc1` [GSK711701A] is higher in “fold change in fluorescence relative to zaprinast alone” value: 1.056 for the first, 1.357 for the second.

Going from `CC1=C(C(=O)Nc2cc3cn[nH]c3cc2F)C(c2ccc(C(F)(F)F)cc2)CC(=O)N1` (centres unmarked) [GSK429286A] to `CC1=C(C(=O)Nc2ccc3[nH]nc(C)c3c2)C(c2ccc(C(F)(F)F)cc2)CC(=O)N1` (centres unmarked) [GSK466314A], the “fold change in fluorescence relative to zaprinast alone” value rises from 1.046 to 1.189.

First: C[C@@H](Oc1cc(-n2cnc3cc(-c4ccncc4)ccc32)sc1C(N)=O)c1ccccc1Cl [GSK479719A]
Second: C[C@@H](Oc1cc(-n2cnc3ccc(-c4ccncc4)cc32)sc1C(N)=O)c1ccccc1Cl [GSK483724A]
The “fold change in fluorescence relative to zaprinast alone” value of the first is higher: 1.296 for the first, 1.04 for the second.

First: CCn1c(-c2nonc2N)nc2c(C#CC(C)(C)O)ncc(OCCCCN)c21 [GSK507274A]
Second: CCn1c(-c2nonc2N)nc2c(C#CCN)ncc(OCCCN)c21 [GSK561866B]
The “fold change in fluorescence relative to zaprinast alone” value of the first is lower: 1.063 for the first, 1.218 for the second.

First: Cc1[nH]nc2ccc(-c3cc(OC[C@@H](N)Cc4ccccc4)cnc3-c3ccoc3)cc12 [GSK507358A]
Second: NS(=O)(=O)c1ccc(-c2cc3ccncc3cc2OCc2ccccc2)cc1 [GSK953913A]
The “fold change in fluorescence relative to zaprinast alone” value of the first is lower: 0.7404 for the first, 1.131 for the second.

First: COc1cc(C2=NC(c3ccc(Cl)cc3F)C(C(=O)Nc3ccc4[nH]ncc4c3)=C(C)N2)ccn1 (centres unmarked) [GSK534911A]
Second: Cc1ccc(S(=O)(=O)Nc2ccc(Nc3nccc(Nc4cccc5[nH]ncc45)n3)cc2)cc1 [GSK581271A]
The “fold change in fluorescence relative to zaprinast alone” value of the first is higher: 1.41 for the first, 0.8813 for the second.

First: C[C@@H](Oc1cc(-n2cnc3cc(-c4cnn(C)c4)ccc32)sc1C(N)=O)c1ccccc1Cl [GSK580432A]
Second: C[C@@H](Oc1cc(-n2cnc3cc(-c4ccnc(N5CCN(C)CC5)c4)ccc32)sc1C(N)=O)c1ccccc1Cl [GSK641502A]
The “fold change in fluorescence relative to zaprinast alone” value of the first is higher: 1.313 for the first, 1.062 for the second.

Compared with `CCn1c(-c2nonc2N)nc2c(C#CC(C)(C)O)ncc(OC[C@@H]3CCCN3)c21` [GSK614526A], `CCn1c(-c2nonc2N)nc2c(C#CC(C)(C)O)ncc(OC3CCNCC3)c21` [GSK619487A] is lower in “fold change in fluorescence relative to zaprinast alone” value: 1.198 for the first, 1.184 for the second.

Compared with `NC(=O)c1cc(-c2ccc(F)cc2)cc(-c2ccncc2)c1N` [GSK620503A], `CNC(=O)c1cc(-c2ccc(F)cc2)cc(-c2ccc(S(=O)(=O)N3CCCC3)cc2)c1N` [GSK635416A] is higher in “fold change in fluorescence relative to zaprinast alone” value: 1.057 for the first, 1.111 for the second.

Compared with `Nc1ncc(-c2cccnc2)c2scc(-c3ccc4c(c3)CCN4C(=O)Cc3ccccc3)c12` [GSK683281A], `CCn1cc(-c2ccnc3[nH]ccc23)c(-c2cccc(NC(=O)Nc3ccc(OCc4ccccc4)cc3)c2)n1` [GSK718429A] is lower in “fold change in fluorescence relative to zaprinast alone” value: 1.385 for the first, 1.268 for the second.

First: O=S(=O)(c1ccc(-c2ccnc3[nH]ccc23)cc1)N1CCCC1 [GSK846226A]
Second: NCCNS(=O)(=O)c1ccc(-c2ccnc3[nH]ccc23)cc1 [GSK977617A]
The “fold change in fluorescence relative to zaprinast alone” value of the first is lower: 1.029 for the first, 1.223 for the second.

Compared with `CCn1c(-c2nonc2N)nc2c(C#CC(C)(C)O)nc(OCCN)cc21` [GSK902056A], `CCn1c(-c2nonc2N)nc2c(C#CC(C)(C)O)nc(OCCNC)cc21` [GSK949675A] is lower in “fold change in fluorescence relative to zaprinast alone” value: 1.153 for the first, 1.152 for the second.

Compared with `CCn1c(-c2nonc2N)nc2c(C#CC(C)(C)O)nc(OC[C@@H](N)c3ccccc3)cc21` [GSK938890A], `CCn1c(-c2nonc2N)nc2c(C#CC(C)(C)O)nc(OC[C@H](N)c3ccccc3)cc21` [GSK943949A] is higher in “fold change in fluorescence relative to zaprinast alone” value: 1.022 for the first, 1.114 for the second.

First: Cc1ccc(NC(=O)Nc2cccc(C(F)(F)F)c2)cc1 [GSK955403A]
Second: CN(C)CCNS(=O)(=O)c1ccc(-c2ccnc3[nH]ccc23)cc1 [GSK977620A]
The “fold change in fluorescence relative to zaprinast alone” value of the first is lower: 0.9183 for the first, 1.218 for the second.
